The values that follow come from ChEMBL document CHEMBL4808217, “Design, Synthesis, and Characterization of 4-Aminoquinazolines as Potent Inhibitors of the G Protein-Coupled Receptor Kinase 6 (GRK6) for the Treatment of Multiple Myeloma” (J Med Chem, 2021).

Structures are written as SMILES. A value given as a limit tells only on which side of the number the result lay.

One test has as its target T1, Aurora kinase A (Homo sapiens, UniProt O14965).
T1 sequence (O14965 whole entry): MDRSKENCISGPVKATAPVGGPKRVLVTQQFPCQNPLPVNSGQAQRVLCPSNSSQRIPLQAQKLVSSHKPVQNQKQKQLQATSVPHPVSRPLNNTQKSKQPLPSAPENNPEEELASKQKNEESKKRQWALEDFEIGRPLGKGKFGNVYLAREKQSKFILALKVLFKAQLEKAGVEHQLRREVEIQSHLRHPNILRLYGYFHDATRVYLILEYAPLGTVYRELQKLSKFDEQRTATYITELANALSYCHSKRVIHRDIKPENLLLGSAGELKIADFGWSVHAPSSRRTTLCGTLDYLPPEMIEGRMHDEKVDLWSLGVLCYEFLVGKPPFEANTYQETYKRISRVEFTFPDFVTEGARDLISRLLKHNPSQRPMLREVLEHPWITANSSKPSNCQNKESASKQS
Kind of test: Inhibition of recombinant full length human Aurora A using LRRASLG as substrate incubated for 40 mins in presence of [gamma-33ATP] by radiometric scintillation counting method.

For test [1], the target named is Serine/threonine-protein kinase Chk2 (Homo sapiens, UniProt O96017). Kind of test: Inhibition of recombinant human CHK2 (5 to end residues) using KKKVSRSGLYRSPSMPENLNRPR as substrate incubated for 40 mins in presence of [gamma-33ATP] by scintillation counting based radiometry assay.
Sequence of Serine/threonine-protein kinase Chk2 (O96017 whole entry, the tested form may be a part): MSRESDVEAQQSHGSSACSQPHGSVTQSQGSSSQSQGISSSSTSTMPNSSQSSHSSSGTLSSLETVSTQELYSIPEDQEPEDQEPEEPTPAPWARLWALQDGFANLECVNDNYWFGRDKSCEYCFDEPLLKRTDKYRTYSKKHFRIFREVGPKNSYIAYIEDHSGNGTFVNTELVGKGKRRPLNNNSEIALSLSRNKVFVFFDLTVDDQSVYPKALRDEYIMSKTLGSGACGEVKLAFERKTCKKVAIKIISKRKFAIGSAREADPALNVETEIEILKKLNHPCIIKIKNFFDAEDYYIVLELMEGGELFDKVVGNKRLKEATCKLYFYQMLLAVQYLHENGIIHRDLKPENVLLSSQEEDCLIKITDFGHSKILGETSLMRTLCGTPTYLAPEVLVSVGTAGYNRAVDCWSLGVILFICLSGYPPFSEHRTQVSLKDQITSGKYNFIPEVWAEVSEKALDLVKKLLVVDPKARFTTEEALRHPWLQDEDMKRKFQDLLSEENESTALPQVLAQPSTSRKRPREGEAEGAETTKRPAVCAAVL
Another test deals with Focal adhesion kinase 1 (Homo sapiens, UniProt Q05397). Kind of test: Inhibition of recombinant human FAK (411 to 686 residues) using EEEEYEEEEEEYY as substrate incubated for 40 mins in presence of [gamma-33ATP] by scintillation counting based radiometry assay.
Sequence of Focal adhesion kinase 1 (Q05397 whole entry, the tested form may be a part): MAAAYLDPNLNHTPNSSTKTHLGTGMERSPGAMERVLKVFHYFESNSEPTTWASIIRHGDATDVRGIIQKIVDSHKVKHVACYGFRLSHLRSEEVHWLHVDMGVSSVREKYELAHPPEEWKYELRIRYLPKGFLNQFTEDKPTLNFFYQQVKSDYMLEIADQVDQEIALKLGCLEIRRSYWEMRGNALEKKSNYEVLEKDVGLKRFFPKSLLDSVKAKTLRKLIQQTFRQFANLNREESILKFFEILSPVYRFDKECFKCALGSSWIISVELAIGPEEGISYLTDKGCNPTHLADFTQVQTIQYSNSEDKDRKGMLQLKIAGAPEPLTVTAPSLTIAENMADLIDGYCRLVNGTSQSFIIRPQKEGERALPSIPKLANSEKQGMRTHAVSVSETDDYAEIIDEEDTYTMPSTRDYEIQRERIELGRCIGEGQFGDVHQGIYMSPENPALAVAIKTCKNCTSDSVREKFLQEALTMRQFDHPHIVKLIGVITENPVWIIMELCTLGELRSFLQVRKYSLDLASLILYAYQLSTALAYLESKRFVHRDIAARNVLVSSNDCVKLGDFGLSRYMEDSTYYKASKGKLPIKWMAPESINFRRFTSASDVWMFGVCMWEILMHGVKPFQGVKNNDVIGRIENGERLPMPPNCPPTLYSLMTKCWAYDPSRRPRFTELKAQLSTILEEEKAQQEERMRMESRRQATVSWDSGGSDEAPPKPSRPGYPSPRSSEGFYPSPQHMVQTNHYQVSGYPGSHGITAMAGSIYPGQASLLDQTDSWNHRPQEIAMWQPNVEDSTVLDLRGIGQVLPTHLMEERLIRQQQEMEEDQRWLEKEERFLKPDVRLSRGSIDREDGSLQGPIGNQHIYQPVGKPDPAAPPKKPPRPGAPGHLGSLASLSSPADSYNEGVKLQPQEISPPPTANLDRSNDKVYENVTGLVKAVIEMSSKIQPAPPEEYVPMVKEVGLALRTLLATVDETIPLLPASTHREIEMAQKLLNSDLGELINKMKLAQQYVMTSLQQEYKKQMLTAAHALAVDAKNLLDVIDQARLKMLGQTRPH
In test [2] the target is Tyrosine-protein kinase JAK2 (Homo sapiens, UniProt O60674). In words: Inhibition of recombinant human JAK2 (808 to end residues) using KTFCGTPEYLAPE as substrate incubated for 40 mins in presence of [gamma33P]ATP by radiometric scintillation counting analysis.
Sequence of Tyrosine-protein kinase JAK2 (O60674 whole entry): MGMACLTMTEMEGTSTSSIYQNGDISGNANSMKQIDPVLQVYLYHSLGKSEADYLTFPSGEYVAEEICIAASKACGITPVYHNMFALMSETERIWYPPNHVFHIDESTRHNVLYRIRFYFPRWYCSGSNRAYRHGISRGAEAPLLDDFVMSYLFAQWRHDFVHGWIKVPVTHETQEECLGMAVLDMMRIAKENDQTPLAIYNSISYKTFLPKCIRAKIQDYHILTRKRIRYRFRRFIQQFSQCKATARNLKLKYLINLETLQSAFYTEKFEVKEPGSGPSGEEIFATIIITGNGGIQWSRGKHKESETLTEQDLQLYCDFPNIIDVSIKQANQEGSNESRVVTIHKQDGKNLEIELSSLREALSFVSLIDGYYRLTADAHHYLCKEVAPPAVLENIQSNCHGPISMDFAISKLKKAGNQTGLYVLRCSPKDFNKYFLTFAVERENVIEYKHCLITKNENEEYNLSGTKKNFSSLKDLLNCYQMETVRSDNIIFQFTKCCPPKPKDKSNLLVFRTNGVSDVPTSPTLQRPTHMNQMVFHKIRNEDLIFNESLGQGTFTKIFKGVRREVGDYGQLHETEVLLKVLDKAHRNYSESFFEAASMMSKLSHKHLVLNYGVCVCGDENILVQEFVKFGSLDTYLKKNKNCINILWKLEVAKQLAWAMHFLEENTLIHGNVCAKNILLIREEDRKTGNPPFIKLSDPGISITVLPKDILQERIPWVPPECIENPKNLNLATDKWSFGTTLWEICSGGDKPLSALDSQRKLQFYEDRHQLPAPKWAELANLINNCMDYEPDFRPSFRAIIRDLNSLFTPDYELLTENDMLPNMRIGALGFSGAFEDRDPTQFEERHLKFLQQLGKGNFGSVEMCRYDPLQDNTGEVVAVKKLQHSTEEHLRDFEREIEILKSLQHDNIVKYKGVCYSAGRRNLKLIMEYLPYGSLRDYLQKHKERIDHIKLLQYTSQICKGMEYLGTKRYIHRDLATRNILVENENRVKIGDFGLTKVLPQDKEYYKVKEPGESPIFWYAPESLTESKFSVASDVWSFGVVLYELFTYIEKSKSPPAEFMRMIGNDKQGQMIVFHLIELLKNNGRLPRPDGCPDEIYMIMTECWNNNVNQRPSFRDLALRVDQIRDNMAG
For a further test, the target named is T2, Rhodopsin kinase GRK1 (Homo sapiens, UniProt Q15835).
T2 sequence (Q15835 whole entry): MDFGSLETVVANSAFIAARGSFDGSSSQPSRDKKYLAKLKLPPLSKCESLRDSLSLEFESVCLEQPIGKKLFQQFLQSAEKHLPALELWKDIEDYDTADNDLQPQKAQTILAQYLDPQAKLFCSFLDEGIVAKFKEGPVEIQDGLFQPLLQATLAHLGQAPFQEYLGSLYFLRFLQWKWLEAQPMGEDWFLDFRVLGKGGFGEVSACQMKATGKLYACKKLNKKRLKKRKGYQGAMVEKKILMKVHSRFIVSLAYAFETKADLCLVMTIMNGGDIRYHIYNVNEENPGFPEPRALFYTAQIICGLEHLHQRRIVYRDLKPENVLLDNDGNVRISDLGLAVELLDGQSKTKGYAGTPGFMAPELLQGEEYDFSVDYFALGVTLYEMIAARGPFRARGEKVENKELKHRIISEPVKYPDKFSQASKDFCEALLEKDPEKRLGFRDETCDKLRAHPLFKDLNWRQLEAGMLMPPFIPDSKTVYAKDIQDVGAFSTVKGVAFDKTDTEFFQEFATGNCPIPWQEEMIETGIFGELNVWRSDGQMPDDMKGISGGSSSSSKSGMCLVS
Kind of test: Inhibition of human GRK1 using casein as substrate in presence of [gamma33P]ATP by radiometric hotspot kinase assay.

Test [3] has as its target T3, G protein-coupled receptor kinase 3 (Homo sapiens, UniProt P35626).
T3 sequence (P35626 whole entry): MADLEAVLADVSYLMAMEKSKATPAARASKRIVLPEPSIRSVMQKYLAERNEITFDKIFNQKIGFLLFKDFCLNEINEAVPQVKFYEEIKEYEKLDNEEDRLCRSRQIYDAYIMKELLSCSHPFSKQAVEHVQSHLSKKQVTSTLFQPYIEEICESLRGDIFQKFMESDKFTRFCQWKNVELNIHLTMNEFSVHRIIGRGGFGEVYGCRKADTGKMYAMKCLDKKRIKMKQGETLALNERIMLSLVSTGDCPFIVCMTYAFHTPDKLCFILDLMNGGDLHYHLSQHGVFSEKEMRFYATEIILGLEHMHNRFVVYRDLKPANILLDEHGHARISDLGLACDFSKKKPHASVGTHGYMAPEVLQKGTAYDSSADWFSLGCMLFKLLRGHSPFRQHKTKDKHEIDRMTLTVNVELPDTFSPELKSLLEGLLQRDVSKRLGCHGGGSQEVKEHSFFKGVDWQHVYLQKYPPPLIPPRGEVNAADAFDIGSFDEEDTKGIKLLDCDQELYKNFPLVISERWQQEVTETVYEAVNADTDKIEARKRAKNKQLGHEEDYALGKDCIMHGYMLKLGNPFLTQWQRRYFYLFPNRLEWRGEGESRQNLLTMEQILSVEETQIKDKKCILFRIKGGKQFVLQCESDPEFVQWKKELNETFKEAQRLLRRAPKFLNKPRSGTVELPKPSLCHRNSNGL
Kind of test: Inhibition of human GRK3 using casein as substrate in presence of [gamma33P]ATP by radiometric hotspot kinase assay.

In test [4] the target is G protein-coupled receptor kinase 4 (Homo sapiens, UniProt P32298). In words: Inhibition of human GRK4 using casein as substrate in presence of [gamma33P]ATP by radiometric hotspot kinase assay.
Sequence of G protein-coupled receptor kinase 4 (P32298 whole entry): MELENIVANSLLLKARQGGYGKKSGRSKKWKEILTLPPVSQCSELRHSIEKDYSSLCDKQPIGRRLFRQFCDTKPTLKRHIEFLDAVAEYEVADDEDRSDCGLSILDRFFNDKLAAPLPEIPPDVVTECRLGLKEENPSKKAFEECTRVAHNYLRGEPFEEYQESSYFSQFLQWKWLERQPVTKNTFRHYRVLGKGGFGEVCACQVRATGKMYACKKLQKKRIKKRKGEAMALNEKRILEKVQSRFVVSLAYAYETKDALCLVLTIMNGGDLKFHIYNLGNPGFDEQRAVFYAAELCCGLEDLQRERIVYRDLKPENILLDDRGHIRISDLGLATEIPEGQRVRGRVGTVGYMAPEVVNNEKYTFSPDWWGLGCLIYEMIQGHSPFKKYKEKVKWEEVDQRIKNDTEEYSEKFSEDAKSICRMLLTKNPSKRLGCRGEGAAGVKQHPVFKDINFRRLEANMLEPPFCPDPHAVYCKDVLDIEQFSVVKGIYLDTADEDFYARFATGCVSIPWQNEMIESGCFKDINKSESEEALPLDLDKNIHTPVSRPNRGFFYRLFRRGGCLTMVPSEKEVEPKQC
Test [5] has as its target T4, G protein-coupled receptor kinase 6 (Homo sapiens, UniProt P43250). In words: Inhibition of human GRK6 using casein as substrate in presence of [gamma33P]ATP by radiometric hotspot kinase assay.
A further test has as its target T5, Rhodopsin kinase GRK7 (Homo sapiens, UniProt Q8WTQ7).
T5 sequence (Q8WTQ7 whole entry): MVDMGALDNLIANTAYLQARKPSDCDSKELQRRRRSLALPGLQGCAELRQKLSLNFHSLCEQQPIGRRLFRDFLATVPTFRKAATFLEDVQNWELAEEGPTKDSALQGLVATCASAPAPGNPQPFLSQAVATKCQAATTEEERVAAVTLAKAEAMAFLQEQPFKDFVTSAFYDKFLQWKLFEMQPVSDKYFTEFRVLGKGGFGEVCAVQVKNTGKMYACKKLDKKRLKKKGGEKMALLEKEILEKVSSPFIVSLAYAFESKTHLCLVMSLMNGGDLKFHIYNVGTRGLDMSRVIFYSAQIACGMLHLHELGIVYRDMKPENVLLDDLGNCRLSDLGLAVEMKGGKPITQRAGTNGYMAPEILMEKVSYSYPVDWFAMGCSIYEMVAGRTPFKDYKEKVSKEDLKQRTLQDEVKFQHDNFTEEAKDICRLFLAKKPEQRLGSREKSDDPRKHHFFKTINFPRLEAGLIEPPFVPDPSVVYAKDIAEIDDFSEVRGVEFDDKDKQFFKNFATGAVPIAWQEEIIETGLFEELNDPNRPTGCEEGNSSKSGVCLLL
Kind of test: Inhibition of recombinant full length human GRK7 using casein as substrate incubated for 40 mins in presence of [gamma-33ATP] by scintillation counting based radiometry assay.

Test [6] addresses T4, G protein-coupled receptor kinase 6. In words: Binding affinity to FLAG-tagged GRK6 in human KMS11 cells incubated for […] by ITDR assay. The test is classed as cell-based, KMS-11.

T4 sequence (P43250 whole entry): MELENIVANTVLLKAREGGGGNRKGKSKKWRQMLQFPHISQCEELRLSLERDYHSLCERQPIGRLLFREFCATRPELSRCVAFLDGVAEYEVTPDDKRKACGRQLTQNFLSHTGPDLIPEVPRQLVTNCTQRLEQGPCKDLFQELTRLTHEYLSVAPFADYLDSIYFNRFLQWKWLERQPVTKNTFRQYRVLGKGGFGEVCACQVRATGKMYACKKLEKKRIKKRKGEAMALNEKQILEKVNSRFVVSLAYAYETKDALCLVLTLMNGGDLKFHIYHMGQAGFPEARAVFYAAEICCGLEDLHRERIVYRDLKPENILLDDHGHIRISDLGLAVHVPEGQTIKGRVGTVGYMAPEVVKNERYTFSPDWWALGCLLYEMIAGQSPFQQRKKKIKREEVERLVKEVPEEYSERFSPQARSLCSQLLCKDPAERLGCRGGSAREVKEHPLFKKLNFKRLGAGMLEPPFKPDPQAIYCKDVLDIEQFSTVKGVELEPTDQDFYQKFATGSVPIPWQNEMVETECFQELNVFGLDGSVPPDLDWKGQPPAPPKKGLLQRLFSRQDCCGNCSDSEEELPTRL

What is called IC50 is the concentration needed to halve the response being measured. Take `CCc1cc(Nc2nc(NCc3ccc(Cl)cc3OC)nc3cccc(OC)c23)n[nH]1`: the IC50 was 8900 nM at Aurora kinase A; 820 nM in test [1]; 220 nM on Focal adhesion kinase 1; > 10000 nM in test [2]; 52 nM at Rhodopsin kinase GRK1; > 10000 nM in [3]. The IC50 in test [4] amounted to 22 nM; in test [5], 3.8 nM; on Rhodopsin kinase GRK7 it was 6.4 nM; in [6], 30 nM.
